Results on two molecules are retold here after paper PMC10279920, “Single-molecule visualization of Pif1 helicase translocation on single-stranded DNA” (The Journal of Biological Chemistry, 2023).

Positions count from the first letter of the chain named.

Data set [1] has as its target T1, GFP-Pif1 (Saccharomyces cerevisiae, UniProt P07271, K387A).
T1 construct: N-terminal superfolder GFP fusion of nuclear isoform residues 40-859, pRSF-Duet-1, E. coli Rosetta2(DE3), Ni-NTA purified
T1 sequence (P07271 40-859 K387A): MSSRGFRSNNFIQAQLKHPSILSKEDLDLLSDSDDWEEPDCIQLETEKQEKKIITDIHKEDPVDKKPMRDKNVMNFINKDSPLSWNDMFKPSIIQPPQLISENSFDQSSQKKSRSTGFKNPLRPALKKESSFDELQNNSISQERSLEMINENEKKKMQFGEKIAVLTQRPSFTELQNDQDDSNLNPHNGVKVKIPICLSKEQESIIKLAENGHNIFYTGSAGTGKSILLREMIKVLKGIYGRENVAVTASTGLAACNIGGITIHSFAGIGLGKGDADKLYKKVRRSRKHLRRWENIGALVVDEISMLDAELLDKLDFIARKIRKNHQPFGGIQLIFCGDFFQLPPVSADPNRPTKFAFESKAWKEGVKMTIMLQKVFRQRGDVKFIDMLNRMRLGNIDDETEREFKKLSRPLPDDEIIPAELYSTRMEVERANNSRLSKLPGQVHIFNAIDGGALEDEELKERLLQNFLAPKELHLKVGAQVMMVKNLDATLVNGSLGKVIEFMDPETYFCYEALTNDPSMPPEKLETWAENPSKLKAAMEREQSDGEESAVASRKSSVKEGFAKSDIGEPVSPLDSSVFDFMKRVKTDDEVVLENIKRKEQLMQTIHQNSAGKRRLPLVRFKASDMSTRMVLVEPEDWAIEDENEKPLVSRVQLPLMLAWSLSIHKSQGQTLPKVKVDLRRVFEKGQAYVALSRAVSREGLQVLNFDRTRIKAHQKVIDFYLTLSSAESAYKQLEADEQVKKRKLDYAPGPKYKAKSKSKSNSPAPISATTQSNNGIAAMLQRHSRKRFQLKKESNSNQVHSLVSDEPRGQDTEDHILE
The data set can be described thus: ATP hydrolysis, [γ-32P]-ATP TLC, Michaelis-Menten fit. It counts as biochemical. To be noted: M13 ssDNA 1.5 μM nt, 10 nM Pif1, 5 mM MgCl2, 60 mM KCl, pH 7.5, 30 °C, no RPA; labelled compound as tracer.

The target in data set [2] is T2, GFP-Pif1 (Saccharomyces cerevisiae, UniProt P07271, H303A).
T2 construct: N-terminal superfolder GFP fusion of nuclear isoform residues 40-859, pRSF-Duet-1, E. coli Rosetta2(DE3), Ni-NTA purified
T2 sequence (P07271 40-859 H303A): T1 sequence (P07271 40-859 K387A) with H264A, A348K
The data set is described as above. It counts as biochemical. To be noted: M13 ssDNA 1.5 μM nt, 10 nM Pif1, 5 mM MgCl2, 60 mM KCl, pH 7.5, 30 °C, no RPA; labelled compound as tracer. How it is done: ATP hydrolysis, [γ-32P]-ATP TLC, Michaelis-Menten fit on GFP-Pif1 | each of the mutant proteins was tested for ATPase activity

Another data set concerns the target T3, GFP-Pif1 T301A (Saccharomyces cerevisiae, UniProt P07271 40-859, T301A).
T3 sequence: T1 sequence (P07271 40-859 K387A) with T262A, A348K
The data set can be described thus: EMSA; no ATP, 5 mM Mg2+; up to 50 nM; 35 mM Tris-HCl pH 7.5, 1 mM DTT, 5 mM MgCl2, 60 mM KCl, 0.1 mg/ml BSA, no ATP, 30 min at 30 C; 5 nM ssDNA. The conditions noted are these: protein: recombinant; tags: N-terminal superfolder GFP; Ni-NTA purified; label: 5' Alexa647. (In EMSA bound probe runs differently from free probe, usually more slowly.)

As for `Nc1ncnc2c1ncn2[C@@H]1O[C@H](COP(=O)(O)OP(=O)(O)OP(=O)(O)O)[C@@H](O)[C@H]1O` [ATP], the values for the Km at GFP-Pif1 [1] and on GFP-Pif1 [2] were 540 ± 290 µM and 870 ± 1320 µM, respectively.

B1: 40-nt ssDNA (ssDNA)
DNA: GCTAGCAGTAGCCAGCATCGAACGTACGATCGGTAACGTA
For the molecule B1, in the data set with GFP-Pif1 T301A, the binding result is on record as “no binding”.

The term Km denotes the substrate concentration at which the rate is half of its maximum.
